In PMC11990383, “Structure Determination of Tegoprazan((S)-4-((5,7-difluorochroman-4-yl)oxy)-N,N,2-trimethyl-1H-benzo[d]imidazole-6-formamide) Polymorphs A and B by Laboratory X-Ray Powder Diffraction” (Molecules, 2025):
≈ marks a conversion by molar mass, not a printed value. Where two headings read alike, the source gives them in different places.

Key:
[1] = Equilibrium solubility in water, potentiometric (pH-metric) CheqSol method; assay type: physicochemical; conditions: for solubility: thermodynamic from solid, read-out: equilibrium concentration (solubility, S)
Experimental: Solubility (S) measurements were conducted in water using the CheqSol system at five temperatures: 15 °C, 25 °C, 35 °C, 45 °C, and 55 °C. However, due to the hydrolytic instability of Tegoprazan at elevated temperatures and the pH-dependent nature of the CheqSol assay, reliable measurements could only be obtained at 15 °C and 25 °C. Based on the equilibrium solubility values at these two temperatures, the enthalpy of solution (ΔHsol) was estimated for each polymorph using van’t Hoff plots of ln(S) versus 1/T.
Solubility measurements were performed using the potentiometric (pH-metric) method with the CheqSol system (T3, Sirius Analytical Instruments Ltd., Portsmouth, UK). Unlike pKa determinations, solubility assays require relatively high sample concentrations to ensure saturation across a broad pH range (typically, pH 2 to 12). In this method, the solution is intentionally brought into a supersaturated state to establish “crossing points,” from which the intrinsic (equilibrium) solubility is calculated based on the concentration of the neutral species predominating at specific pH levels. The high initial concentration of the sample promotes supersaturation, leading to precipitation at pH values corresponding to the compound’s pKa. This onset of precipitation reflects the kinetic solubility, which can be characterized by various physicochemical parameters, including the pKa value, saturated pH, sample concentration, temperature, and crystallinity. This study aimed to investigate the temperature dependence of solubility for Polymorphs A and B. Measurements were conducted at five temperatures: 15 °C, 25 °C, 35 °C, 45 °C, and 55 °C.

[2] = Stability of polymorphs under accelerated conditions, followed by DSC and XRD; assay type: physicochemical; conditions: 40 ± 2 °C, relative humidity 75 ± 5 %, 8-week period; changes seen in the eighth week
Experimental: As a case in point, the stability of the two Tegoprazan polymorphs was evaluated under accelerated conditions (temperature: 40 ± 2 °C, relative humidity: 75 ± 5 HR%) over an 8-week period, with observations for any significant changes conducted using DSC (Differential Scanning Calorimetry) and XRD (X-ray diffraction). […] Therefore, it is essential to elucidate the details of this phenomenon. For quantitative phase analysis and similar studies, knowledge of the crystal structure is crucial. However, the crystal structures of Polymorphs A and B remain unresolved. In response to this need, we explored a practical approach to crystal structure analysis by utilizing readily available powder samples, laboratory-scale XRD instruments, and cost-efficient Rietveld refinement software specifically EXPO2014 (expo version 1.22.11). The known method of SDPD (Structure Determination from Powder Diffraction) was considered as one potential solution to address these challenges. While X-ray diffraction often utilizes synchrotron radiation or other advanced accelerator-based facilities, the crystal structures of Tegoprazan Polymorphs A and B were analyzed using laboratory-based X-ray diffraction (XRD) equipment and powdered samples. This approach was chosen for the following reasons: […]

Compound | solubility ([1]; 15 °C, 15 °C) [µM] | solubility ([1]; 25 °C, 25 °C) [µM] | solid-state stability (changes by DSC and XRD) [2] | equilibrium concentration (solubility, S) ([1]; 15 °C) [µM] | equilibrium concentration (solubility, S) ([1]; 25 °C) [µM]
Cc1nc2c(OC3CCOc4cc(F)cc(F)c43)cc(C(=O)N(C)C)cc2[nH]1 [Polymorph A, (S)-4-((5,7-difluorochroman-4-yl)oxy)-N,N,2-trimethyl-1H-benzo[d]imidazole-6-formamide] | 1250 (≈ 483 µg/mL) | 1440 (≈ 557 µg/mL) | No changes |  | 
Cc1nc2c(OC3CCOc4cc(F)cc(F)c43)cc(C(=O)N(C)C)cc2[nH]1 [Polymorph B, (S)-4-((5,7-difluorochroman-4-yl)oxy)-N,N,2-trimethyl-1H-benzo[d]imidazole-6-formamide] |  |  | phase transition to Polymorph A | 1476 | 2118
